According to patent US10568856B2, “Composition for improved sleep” (Jamieson Laboratories, Ltd., priority 2015, dated 2020):

Assay: Melatonin time release profile (dissolution testing) of bilayer caplet
Format: physicochemical
Settings: for Melatonin Released (%): bilayer caplet
From the text: Initially, a small portion of melatonin was being added to the immediate release layer. […] The premix blends were modified by relocating all melatonin ingredients to the time release layer. During initial trials, modifications were also made to excipients for cost purposes. […] The final bilayer caplet is coated, making it easier to swallow, with peppermint oil for odour masking. With these optimum parameters assessed for each layer, the tablet satisfies all of the requisite physical and chemical parameters to deliver the ingredients as intended.

Melatonin Released (%) (hardness 28 kp, time 15 minutes): 20% | Melatonin Released (%) (hardness 28 kp, time 60 minutes): 57% | Melatonin Released (%) (hardness 28 kp, time 360 minutes): 99% | Melatonin Released (%) (hardness 30 kp, time 15 minutes): 18% | Melatonin Released (%) (hardness 30 kp, time 60 minutes): 52% | Melatonin Released (%) (hardness 30 kp, time 360 minutes): 98% | melatonin release in dissolution testing (initial trial formulation with a small portion of melatonin in the immediate release layer): released too quickly
Compound: COc1ccc2[nH]cc(CCNC(C)=O)c2c1 [Melatonin]
